From the supplement of paper PMC12592484

Tests used:
Assay in all cases: drug sensitivity score (DSS2, normalised partial AUC of dose-response, 72 h CellTiter-Glo viability) (DSS (dimensionless)); higher = more sensitive (stronger growth inhibition / cytotoxicity); extreme values may be limits of the assay
CAF#6 = system: CAF#6 (primary prostate cancer-associated fibroblasts of iCAF-like type)
Outline: (§1)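 The drug sensitivity score reported here is a partial area under the fitted logistic dose–response curve, divided by the log of the curve's upper asymptote and computed in BREEZE; higher values denote greater sensitivity. Low-passage primary prostate cancer-associated fibroblasts, PF179T, WPMY-1, LNCaP and 22Rv1 cells were seeded into 384-well plates preloaded with compounds at five doses across a 10,000-fold range. CellTiter-Glo 2.0 luminescence gave viability at 72 h, scaled to vehicle and positive-control wells.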

WPMY-1 = system: WPMY-1
Outline: as §1

CAF#7 = system: CAF#7 (primary prostate cancer-associated fibroblasts of myCAF-like type)
Outline: as §1

CAF#4 = system: CAF#4 (primary prostate cancer-associated fibroblasts of iCAF-like type)
Outline: as §1

CAF#5 = system: CAF#5 (primary prostate cancer-associated fibroblasts of myCAF-like type)
Outline: as §1

CAF#1 = system: CAF#1 (primary prostate cancer-associated fibroblasts of myCAF-like type)
Outline: as §1

PF179T = system: PF179T
Outline: as §1

CAF#2 = system: CAF#2 (primary prostate cancer-associated fibroblasts of iCAF-like type)
Outline: as §1

CAF#3 = system: CAF#3 (primary prostate cancer-associated fibroblasts of myCAF-like type)
Outline: as §1

22Rv1 = system: 22Rv1
Outline: as §1

LNCAP = system: LNCAP
Outline: as §1

Row | SMILES | drug sensitivity score (CAF#6) | drug sensitivity score (WPMY-1) | drug sensitivity score (CAF#7) | drug sensitivity score (CAF#4) | drug sensitivity score (CAF#5) | drug sensitivity score (CAF#1) | drug sensitivity score (PF179T) | drug sensitivity score (CAF#2) | drug sensitivity score (CAF#3) | drug sensitivity score (22Rv1) | drug sensitivity score (LNCAP)
1 | C[C@@]1(C(=O)Nc2ccc(F)nc2)CCCN1c1nc(Nc2cc(C3CC3)n[nH]2)c2cccn2n1 (tested concentration range 1-10000 nM) | 8.7 | 15.6 | 10.5 | 7.9 | 10.7 | 10.4 | 9.4 | 12.2 | 9 | 12.4 | 6.4
2 | C[C@H]1C[C@@H](n2c(Nc3ccc(OC(F)(F)F)cc3)nc3cc(CCC(=O)O)ccc32)CC(C)(C)C1 (tested concentration range 1-10000 nM) | 0 | 0 | 0 | 0 | 0 | 0 | 0 | 0 | 0 | 0 | 0.4
3 | O=C1Cc2cc(C(=O)NC3C[C@H]4CC[C@@H](C3)N4S(=O)(=O)CC3CCN(CCCC(F)(F)F)CC3)c(Cl)cc2N1 (stereo not given in full) (tested concentration range 1-10000 nM) | 0 | 0 | 0 | 0 | 0 | 0 | 0.5 | 0 | 0 | 0 | 0
4 | C[C@@H]1CN(CC(=O)Nc2ccc3c(c2)Cc2cccc(-c4cc(=O)cc(N5CCOCC5)o4)c2S3)C[C@H](C)O1 (tested concentration range 2.5-25000 nM) | 0.2 | 4.2 | 0 | 0 | 0 | 0 | 0.4 | 0.4 | 0.2 | 2.5 | 6.7
5 | NCC(=O)Nc1ccc(-n2nc(C(F)(F)F)cc2-c2ccc3c(ccc4ccccc43)c2)cc1 (tested concentration range 2.5-25000 nM) | 0 | 4.4 | 0 | 0.8 | 0 | 0.7 | 0 | 0 | 0 | 0 | 1.4
6 | CC/C(=C(\c1ccc(O)cc1)c1ccc(OCCN(C)C)cc1)c1ccccc1 [4-hydroxytamoxifen] (tested concentration range 1-10000 nM) | 1.8 | 7.2 | 1.6 | 6.2 | 3.8 | 3.3 | 3.2 | 5.3 | 1.6 | 6.4 | 4.7
7 | Nc1ncnc2c1nc(Cl)n2[C@@H]1O[C@H](CO)[C@@H](O)[C@H]1O [8-chloro-adenosine] (tested concentration range 5-50000 nM) | 2.5 | 15.7 | 2 | 9.6 | 6.5 | 7.4 | 9.1 | 8.4 | 3.4 | 15 | 15.1
8 | COc1cc2c(cc1OCCCN1CCCC1)N=C(N)C21CCC1 [A-366] (tested concentration range 2.5-25000 nM) | 1.5 | 4.5 | 0 | 0 | 0 | 0 | 0.1 | 0 | 0.7 | 6.7 | 5.6
9 | Cc1sc2c(c1C)C(c1ccc(Cl)cc1)=N[C@@H](CC(=O)Nc1ccc(OCCOCCOCCOCCNc3cccc4c3C(=O)N(C3CCC(=O)NC3=O)C4=O)cc1)c1nnc(C)n1-2 (stereo not given in full) [ARV-825] (tested concentration range 0-300 nM) | 11.6 | 8.1 | 17.1 | 6.9 | 6.2 | 7.7 | 3.3 | 5.8 | 15.6 | 14.7 | 17.1
10 | CN[C@@H](C)C(=O)N[C@H]1CN(C(=O)CC(C)C)CC[C@H]2CC[C@@H](C(=O)NC(c3ccccc3)c3ccccc3)N2C1=O [AT-406] (tested concentration range 1-10000 nM) | 1.6 | 0 | 0 | 0 | 0 | 0 | 0 | 0 | 0 | 0 | 0
11 | CO[C@H]1CC[C@H](N2C(=O)CNc3ncc(-c4ccc(C(C)(C)O)nc4)nc32)CC1 [ATG-008] (tested concentration range 1-10000 nM) | 2.8 | 6.2 | 3.1 | 6.5 | 7.4 | 5.7 | 6.3 | 7 | 5.5 | 8.9 | 7.6
12 | CC[C@H](CC#N)OC(=O)N[C@@H](C)c1cccc(NC(=O)Nc2ccc(-c3cnco3)c(OC)c2)c1 [AVN944] (tested concentration range 1-10000 nM) | 11.4 | 19 | 12.1 | 11.4 | 11.4 | 8.5 | 14.9 | 16.1 | 8.5 | 18.7 | 18.1
13 | COc1cc(N2CCN(C)CC2)ccc1Nc1nccc(-c2cn(C)c3cnccc23)n1 [AZ191] (tested concentration range 1-10000 nM) | 2.3 | 6.8 | 2.1 | 1.9 | 4.6 | 6 | 2.7 | 5.7 | 7.1 | 6.4 | 3.5
14 | COc1cc(OC2CCN(C)CC2)ccc1Nc1ncc2c(n1)n(C1CCCC1)c(=O)n2C [AZ 3146] (tested concentration range 1-10000 nM) | 1.6 | 4.8 | 2.8 | 0.8 | 0.7 | 1.8 | 2.3 | 4.3 | 3.1 | 7.5 | 4.6
15 | COc1cc2ncnc(Nc3cccc(Cl)c3F)c2cc1OC(=O)N1CCN(C)C[C@H]1C [AZD3759] (tested concentration range 0.1-1000 nM) | 0 | 0 | 0 | 0 | 0 | 0 | 0 | 0 | 0.4 | 0 | 0
16 | Cc1[nH]nc(C(F)(F)F)c1Cc1sc2c(c1C(=O)N1C[C@](C)(O)CO1)c(=O)n(C)c(=O)n2C(C)C [AZD3965] (tested concentration range 0.1-1000 nM) | 0 | 0 | 0 | 0 | 0 | 0.1 | 0 | 0.1 | 0 | 0 | 10.5
17 | COc1cc(CCc2cc(NC(=O)c3ccc(N4CC(C)NC(C)C4)cc3)n[nH]2)cc(OC)c1 (stereo not given) [AZD4547] (tested concentration range 0.1-1000 nM) | 5.8 | 0.2 | 13.1 | 0.6 | 1.3 | 1.1 | 3.5 | 2.5 | 6.7 | 0 | 0.3
18 | CN(C)C(=O)c1ccc(S(=O)(=O)c2ccc(NC(=O)[C@@](C)(O)C(F)(F)F)c(Cl)c2)cc1 [AZD7545] (tested concentration range 1-10000 nM) | 0 | 0.1 | 0 | 0 | 0 | 0 | 0 | 0 | 0.4 | 0.2 | 2.7
19 | Cc1ncc(-c2ccnc(Nc3ccc(S(C)(=O)=O)cc3)n2)n1C(C)C [AZD-5438] (tested concentration range 1-10000 nM) | 3 | 8.7 | 5.6 | 6.8 | 2.9 | 4.1 | 2.5 | 3.9 | 4 | 7.6 | 10.2
20 | C[C@@H](Nc1cc(F)cc(F)c1)c1cc(C(=O)N(C)C)cc2c(=O)cc(N3CCOCC3)oc12 [AZD-8186] (tested concentration range 0.1-1000 nM) | 2.2 | 1 | 3.9 | 2.8 | 2.8 | 2.9 | 6.3 | 3.4 | 4.2 | 1 | 12.7
21 | CCN1CCN(Cc2ccc(Nc3ncc(F)c(-c4cc(F)c5nc(C)n(C(C)C)c5c4)n3)nc2)CC1 [Abemaciclib] (tested concentration range 0.2-2500 nM) | 0.1 | 6 | 0 | 0.2 | 0 | 0 | 0.6 | 5.6 | 0 | 11 | 8.7
22 | CN(C)Cc1c(C(=O)NCCOc2ccc(C(=O)NO)cc2)oc2ccccc12 [Abexinostat] (tested concentration range 1-10000 nM) | 9.9 | 21.6 | 9 | 6.9 | 9.3 | 10 | 10.6 | 12.2 | 8.9 | 19.8 | 19.5
23 | C[C@]12CC[C@H](O)CC1=CC[C@@H]1[C@@H]2CC[C@]2(C)C(c3cccnc3)=CC[C@@H]12 [Abiraterone] (tested concentration range 0.5-5000 nM) | 0 | 0 | 0 | 0 | 1.5 | 0 | 0 | 0 | 0 | 0 | 1.3
24 | CC#CC(=O)N1CCC[C@H]1c1nc(-c2ccc(C(=O)Nc3ccccn3)cc2)c2c(N)nccn12 [Acalabrutinib] (tested concentration range 0.1-1000 nM) | 0 | 0 | 0 | 0 | 0.8 | 0.1 | 0 | 0.4 | 0 | 0 | 0
25 | COc1cc(C)c(/C=C/C(C)=C/C=C/C(C)=C/C(=O)O)c(C)c1C [Acitretin] (tested concentration range 1-10000 nM) | 0.4 | 0 | 0 | 0.1 | 0.8 | 1.7 | 6.3 | 4 | 0.2 | 0 | 0
